Source: patent US7935335B2, “Strains belonging to the genus Paenibacillus and method of controlling plant disease by using these strains or culture thereof” (Kaken Pharmaceutical Co., Ltd., priority 2004, dated 2011)
Where a SMILES comes first, the peptide text is derived from it. Bridges are numbered along the chain shown (N, C = ends). The star is where a group is joined. ξ: configuration not given here. Pentadecanoyl(3ξ-OH,15-Gua) = N=C(N)NCCCCCCCCCCCCC(O)CC(=O)*

Key:
parsley cultured cells [1] = assay: Activity of inducing disease resistance: elicitor responsiveness of parsley cultured cells, phytoalexin detection by fluorescence; type: cell-based; conditions: for Elicitor responsiveness of parsley cultured cells (in words): each compound alone; for Relative fluorescence: 0.5 μM
Protocol: The activity of inducing disease resistance in plant of compound 1 and compound 2 according to the present invention was also evaluated according to the method of Siegrist, J. et al. The results are shown in Table 9.
(§1) The activity of inducing disease resistance in plant of each of compound 1 and compound 2 was evaluated in the same manner as in Evaluation Example 1 by adopting the method practiced in Evaluation Example 1, i.e., the method in which the elicitor responsiveness of parsley cultured cells was measured by the detection of phytoalexin using fluorescence.
as §1, with “inducing” for “inducing disease”, “resistance to” for “resistance in”, “plant diseases” for “plant”, “compound 3” for “compound 1”, “compound 4” for “compound 2”

[2] = test system: cucumber bacterial blight bacterium (Pseudomonas syringae pv. lachrymans); assay: Evaluation Example 2: paper disc test for direct antimicrobial activity against cucumber bacterial blight bacterium; type: cell-based; conditions: tested as 3:2 mixture, 60 + 40 ppm
Protocol: That is, cucumber bacterial blight bacterium was mixed with a potato semisynthetic medium (a decoction consisting of 300 g of potato and 1 L of distilled water, calcium nitrate tetrahydrate 0.5 g, disodium hydrogenphosphate dodecahydrate 2 g, peptone 5 g, sucrose 20 g, powdered agar 15 g) maintained at 45° C., in a proportion of 1×10^8 CFU/mL, and the resulting mixture was dispensed in 20 mL aliquots into sterilized Petri dishes. After the solidification of the medium, 50 μL of a solution obtained by dissolving a 3:2 mixture of compounds 1 and 2 in dimethyl sulfoxide to a concentration of 100 μg/mL was infiltrated into a paper disc with a diameter of 8 mm, and then the paper disc was allowed to stand on the medium. After 48 hours of cultivation at 25° C. in the dark, the activity was evaluated on the basis of the presence of an inhibition zone around the periphery

parsley cultured cells [3] = assay: Activity of inducing disease resistance: elicitor responsiveness of parsley cultured cells, phytoalexin detection by fluorescence; type: cell-based; conditions: Evaluation Example 1; tested as 3:2 mixture
Gram-negative bacteria = conditions: patent document 3, non-patent documents 4 and 5; cited from earlier work
[4] = test system: cucumber bacterial blight bacterium; conditions: patent document 3; cited from earlier work
[5] = test system: Fusarium wilt of cucumber fungus; conditions: patent document 3; cited from earlier work
Solubility in solvents = type: physicochemical
[6] = Evaluation Example 6, elicitor treatment No
[7] = Evaluation Example 6, elicitor treatment Yes
[8] = Evaluation Example 7, elicitor No
[9] = Evaluation Example 7, elicitor Yes
[10] = in ethyl acetate, chloroform and hexane
[11] = in methanol, butanol, isopropyl alcohol and dimethyl sulfoxide

SMILES | Elicitor responsiveness of parsley cultured cells (in words) (parsley cultured cells [1]; Evaluation Example 6) | Relative fluorescence (parsley cultured cells [1]; [6]) | Relative fluorescence (parsley cultured cells [1]; [7]) | Direct antimicrobial activity against cucumber bacterial blight bacterium (in words) [2] | Elicitor responsiveness of parsley cultured cells (in words) (parsley cultured cells [3]) | Antimicrobial activity against Gram-negative bacteria (Gram-negative bacteria) | Antimicrobial activity against cucumber bacterial blight bacterium [4] | Antimicrobial activity against Fusarium wilt of cucumber fungus [5] | Elicitor responsiveness of parsley cultured cells (in words) (parsley cultured cells [1]; Evaluation Example 7) | Relative fluorescence (parsley cultured cells [1]; [8]) | Relative fluorescence (parsley cultured cells [1]; [9]) | Solubility (Solubility in solvents; [10]) | Solubility (Solubility in solvents; [11])
CC1NC(=O)C(CC(N)=O)NC(=O)C(C(C)O)NC(=O)C(C(C)C)NC(=O)C(C(C)C)NC(=O)C(NC(=O)CC(O)CCCCCCCCCCCCNC(=N)N)C(C)OC1=O (stereo not drawn) [Compound 1, Fusaricidin A] ({Pentadecanoyl(3ξ-OH,15-Gua)}-TVVTNA; ester 1-C; configuration not given here) | improves the elicitor responsiveness | 98.5 | 1000 | do not exhibit direct antimicrobial activity | improve the elicitor responsiveness | inactive | inactive | no antimicrobial activity |  |  |  |  | 
CC1NC(=O)C(CCC(N)=O)NC(=O)C(C(C)O)NC(=O)C(C(C)C)NC(=O)C(C(C)C)NC(=O)C(NC(=O)CC(O)CCCCCCCCCCCCNC(=N)N)C(C)OC1=O (stereo not drawn) [Compound 2, Fusaricidin B] ({Pentadecanoyl(3ξ-OH,15-Gua)}-TVVTQA; ester 1-C; configuration not given here) | improves the elicitor responsiveness | 100.7 | 1000 | do not exhibit direct antimicrobial activity | improve the elicitor responsiveness | inactive |  |  |  |  |  |  | 
CC(N)C(=O)OC(C)C1NC(=O)C(C(C)C)NC(=O)C(C(C)C)NC(=O)C(NC(=O)CC(O)CCCCCCCCCCCCNC(=N)N)C(C)OC(=O)C(C)NC(=O)C(CC(N)=O)NC1=O (stereo not drawn) [Compound 3] ({Pentadecanoyl(3ξ-OH,15-Gua)}-TVVT(Ala)NA; ester 1-C; configuration not given here) |  |  |  |  |  |  |  |  | improve the elicitor responsiveness | 3.1 | 222.7 | insoluble | readily soluble
CC(N)C(=O)OC(C)C1NC(=O)C(C(C)C)NC(=O)C(C(C)C)NC(=O)C(NC(=O)CC(O)CCCCCCCCCCCCNC(=N)N)C(C)OC(=O)C(C)NC(=O)C(CCC(N)=O)NC1=O (stereo not drawn) [Compound 4] ({Pentadecanoyl(3ξ-OH,15-Gua)}-TVVT(Ala)QA; ester 1-C; configuration not given here) |  |  |  |  |  |  |  |  | improve the elicitor responsiveness | 0.7 | 504.8 | insoluble | readily soluble
